Results reported in US9474780B2, “GIP and GLP-1 co-agonist compounds” (Eli Lilly and Company, priority 2015, dated 2016).
Where “and” joins values, the source holds several entries; their conditions need not be identical. Identical values can stand only once.

Key:
mouse islets = assay: Mouse islet insulin secretion; type: cell-based; settings: read-out: Mouse islet insulin secretion Mean ED50
Procedure: (§1) To assess action of compounds of the present invention in a system representing physiological GLP-1R and GIP-R expression levels insulin secretion, compounds are tested for effects on insulin secretion from wild-type rodent islets.
(§2) After common bile duct cannulation in male C57B1/6 mice (22-26 g) or male Sprague-Dawley rats (approx. 250 g), the pancreas is distended with Hank's buffer (3 ml for mice or 10 ml for rats, containing 2% BSA and 0.75 mg/ml Clzyme collagenase (VitaCyte). Subsequently, tissues are digested in Hank's buffer at 37° C. for 11-13 minutes (mice) or 14-16 minutes for rat pancreata. Purified islets (Histopaque-1100 gradient [Sigma-Aldrich], […] at 750× gravity) are cultured overnight in RPMI-1640 medium (Invitrogen) containing 10% FBS, 100 U/ml penicillin and 100 μg/ml streptomycin, and preconditioned by starvation in Earle's Balanced Salt Solution (EBSS) supplemented with 0.1% BSA and 2.8 mM glucose. Subsequently, islets are incubated in EBSS (Invitrogen) supplemented with 0.1% BSA, 2.8-11.2 mM glucose and increasing levels of compound (6 batches of 4 islets/condition). GLP-1(7-36)amide (30 nM) is used as a positive control. Insulin is measured over 90 minutes in supernatant using the MSD Insulin Assay (Meso Scale, Gaithersburg, Md.).

[1] = Weight loss, body composition and hepatic steatosis in DIO mice; type: in vivo, mouse; settings: for Blood Glucose: Day 15
Procedure: The effects on weight loss, body composition and hepatic steatosis in DIO mice for compounds of the present invention are evaluated in C57/BL6 DIO mice. […] Animals are individually housed in a temperature-controlled (24° C.) facility with a 12 hour light/dark cycle (lights on 22:00), and free access to food and water. […] Daily body weight and food intake are measured throughout the study. Absolute changes in body weight are calculated by subtracting the body weight of the same animal prior to the first injection of compound. […] On Day 15, blood glucose is measured with Accu-Chek glucometer (Roche) from tail vein blood and then animals may be sacrificed and livers removed and frozen. Liver triglycerides, determined from homogenates of livers collected at sacrifice, and plasma cholesterol are measured on a Hitachi Modular P clinical analyzer. Statistical comparisons between groups are done using one-way ANOVA followed by Dunnett's multiple comparison test. The ED50 for weight loss lowering is determined in GraphPad Prism using the non-linear fit tool.

rat islets = assay: Rat islet insulin secretion; type: cell-based; settings: read-out: Rat islet insulin secretion Mean ED50
Procedure: as §1, §2

human GLP-1R [2] = target: T1, human GLP-1R (Homo sapiens, UniProt P43220); assay: Functional hGLP-1R cAMP assay in HEK-293 clonal cells; type: cell-based; settings: HEK293; percent of maximal response of hGLP-1(7-36)NH2
T1 construct: expressed in transfected cells; host or cells: 293HEK, Hygromycin-selected; crude plasma membranes
Procedure: (§3) After an incubation of 60 minutes at room temperature, the resulting increase in intracellular cAMP is quantitatively determined using the CisBio cAMP Dynamic 2 HTRF Assay Kit (Bedford, Mass.). Briefly, cAMP levels within the cell are detected by adding the cAMP-d2 conjugate in cell lysis buffer (20 μl) followed by the antibody anti-cAMP-Eu^3+-Cryptate, also in cell lysis buffer (20 μl). The resulting competitive assay is incubated for at least 60 minutes at room temperature, then detected using a PerkinElmer Envision® instrument with excitation at 320 nm and emission at 665 nm and 620 nm Envision units (emission at 665 nm/620 nm*10,000) are inversely proportional to the amount of cAMP present and are converted to nM cAMP per well using a cAMP standard curve. […] A relative EC50 value and percent top (Emax) is derived by non-linear regression analysis using the percent maximal response versus the concentration of the compound of the present invention, fitted to a four-parameter logistic equation.

[3] = Pharmacokinetics in cynomolgus monkeys; type: in vivo; settings: cynomolgus monkey, plasma, single SC 0.2 mg/kg, male monkeys, n = 2
Method in brief: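 Single 0.2 mg/kg dose, intravenous or subcutaneous, in 20 mM citrate buffer pH 7.0; blood sampled from 2 to 312 hours post-dose. Plasma extracted with N-butanol, reconstituted in 30% acetonitrile/0.1% formic acid and quantified by LC/MS on a C5 column with Q-Exactive detection.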

human GLP-1R [4] = target: T1, human GLP-1R; type: binding
human GIP-R = target: T2, human GIP-R (Homo sapiens, UniProt P48546); assay: Functional hGIP-R cAMP assay in HEK-293 clonal cells; settings: HEK293, read-out: Human GIP-R Emax
T2 sequence (P48546 22-466): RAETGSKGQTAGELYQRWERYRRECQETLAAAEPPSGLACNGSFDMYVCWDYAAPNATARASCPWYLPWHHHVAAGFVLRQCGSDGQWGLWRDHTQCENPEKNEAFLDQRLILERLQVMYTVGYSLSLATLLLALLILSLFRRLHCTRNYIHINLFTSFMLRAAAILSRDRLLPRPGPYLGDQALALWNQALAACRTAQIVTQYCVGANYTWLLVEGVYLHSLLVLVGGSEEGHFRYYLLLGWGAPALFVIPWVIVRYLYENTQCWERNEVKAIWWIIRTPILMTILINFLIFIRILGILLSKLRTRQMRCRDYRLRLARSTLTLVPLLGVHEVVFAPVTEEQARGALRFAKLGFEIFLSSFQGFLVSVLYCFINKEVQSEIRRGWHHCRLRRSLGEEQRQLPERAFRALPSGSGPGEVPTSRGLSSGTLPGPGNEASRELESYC
Procedure: as §3

Human GCGR = Human GCGR (Homo sapiens, UniProt P47871); assay: Functional hGCGR cAMP assay in HEK-293 clonal cells
[5] = Rat in vivo insulin secretion following intravenous glucose (IVGTT); settings: s.c. 16 hour prior to glucose
Procedure: Male Wistar rats (Harlan Labs, Indianapolis, Ind.) are randomized by body weight and dosed 1.5 ml/kg s.c. 16 hour prior to glucose administration and then fasted. Doses are vehicle, 0.1, 0.3, 1, 3 and 10 nmol/kg. Animals are weighed, and then anesthetized with sodium pentobarbital (Nembutal Sodium solution; Ovation Pharmaceuticals) dosed i.p. (65 mg/kg, 30 mg/ml). A time zero blood sample is collected into EDTA tubes after which glucose is administered ([…], 5 ml/kg). Blood samples are collected at 2, 4, 6, 10, 20, and 30 minutes post glucose. Plasma glucose levels are determined using a Hitachi analyzer (Roche) and plasma insulin is measured by the MSD insulin assay (Meso Scale, Gaithersburg, Md.).

GIP receptor = target: T3, GIP receptor (Mus musculus, UniProt Q0P543); assay: Intracellular cAMP in GLUTag incretin-secreting cells; type: cell-based, murine; settings: 0.001-3 μM
T3 construct: endogenous in cells; host or cells: GLUTag cells (murine enteroendocrine line)
T3 sequence (Q0P543 19-460): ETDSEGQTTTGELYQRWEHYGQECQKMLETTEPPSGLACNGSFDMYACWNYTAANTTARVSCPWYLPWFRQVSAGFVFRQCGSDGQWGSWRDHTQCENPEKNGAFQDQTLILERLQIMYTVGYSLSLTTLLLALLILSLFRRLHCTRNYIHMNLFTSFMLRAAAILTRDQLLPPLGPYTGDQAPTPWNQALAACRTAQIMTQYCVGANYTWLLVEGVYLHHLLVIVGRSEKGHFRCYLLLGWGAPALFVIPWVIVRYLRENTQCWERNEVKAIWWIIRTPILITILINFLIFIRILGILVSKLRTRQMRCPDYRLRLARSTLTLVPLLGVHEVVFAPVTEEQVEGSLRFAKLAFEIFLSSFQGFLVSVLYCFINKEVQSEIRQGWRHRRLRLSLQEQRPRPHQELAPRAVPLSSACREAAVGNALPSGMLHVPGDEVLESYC
Procedure: On the day of the assay, media is decanted from cells and 50 μl EBSS Buffer (0.1% BSA, 2 mM glucose and 0.25 mM IBMX) containing a range of compound concentrations (0.001-3 μM) is added to cells. The plate is incubated at 37° C. for one hour and cAMP levels determined using Cisbio Dynamic 2 cAMP HTRF kit (Bedford, Mass.). 25 μl of anti-cAMP cryptate and 25 μl cAMP d2 is added to each well and plates incubated for one hour at room temperature. […] Data is analyzed with GraphPad using a 4-parameter non-linear logistic algorithm

T1 sequence (P43220 24-463): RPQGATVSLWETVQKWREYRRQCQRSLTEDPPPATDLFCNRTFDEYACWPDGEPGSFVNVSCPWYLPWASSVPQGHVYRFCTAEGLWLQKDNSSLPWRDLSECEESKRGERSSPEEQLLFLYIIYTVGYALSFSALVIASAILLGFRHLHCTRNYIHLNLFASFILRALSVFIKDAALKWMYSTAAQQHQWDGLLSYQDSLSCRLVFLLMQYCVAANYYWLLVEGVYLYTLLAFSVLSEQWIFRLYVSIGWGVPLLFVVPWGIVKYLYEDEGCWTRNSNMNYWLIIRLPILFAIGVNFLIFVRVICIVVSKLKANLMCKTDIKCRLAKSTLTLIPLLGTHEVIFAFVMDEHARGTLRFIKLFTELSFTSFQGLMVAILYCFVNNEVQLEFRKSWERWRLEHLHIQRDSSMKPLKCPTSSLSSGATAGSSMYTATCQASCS
Human GCGR, sequence (P47871 26-477): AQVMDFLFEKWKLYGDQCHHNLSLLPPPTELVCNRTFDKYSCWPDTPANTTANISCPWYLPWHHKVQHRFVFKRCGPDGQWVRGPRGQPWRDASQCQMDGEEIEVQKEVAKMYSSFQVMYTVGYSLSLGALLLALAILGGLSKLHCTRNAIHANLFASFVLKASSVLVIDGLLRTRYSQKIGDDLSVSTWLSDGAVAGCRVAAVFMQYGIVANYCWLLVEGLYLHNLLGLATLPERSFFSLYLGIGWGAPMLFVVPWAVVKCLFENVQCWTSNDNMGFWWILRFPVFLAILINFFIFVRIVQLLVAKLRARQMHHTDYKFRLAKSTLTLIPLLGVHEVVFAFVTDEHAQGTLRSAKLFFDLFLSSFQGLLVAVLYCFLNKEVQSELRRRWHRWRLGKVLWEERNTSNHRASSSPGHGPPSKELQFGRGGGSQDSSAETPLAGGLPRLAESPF

## CC[C@H](C)[C@H](NC(=O)[C@H](CC(C)C)NC(=O)[C@H](Cc1c[nH]c2ccccc12)NC(=O)[C@H](CCC(N)=O)NC(=O)[C@@H](NC(=O)[C@H](Cc1ccccc1)NC(=O)[C@H](C)NC(=O)[C@H](CCCCNC(=O)COCCOCCNC(=O)COCCOCCNC(=O)CC[C@H](NC(=O)CCCCCCCCCCCCCCCCC(=O)O)C(=O)O)NC(=O)[C@H](CCC(N)=O)NC(=O)[C@H](C)NC(=O)[C@@H](NC(=O)[C@H](CCCCN)NC(=O)[C@H](CC(=O)O)NC(=O)[C@H](CC(C)C)NC(=O)C(C)(C)NC(=O)[C@@H](NC(=O)[C@H](CO)NC(=O)[C@H](Cc1ccc(O)cc1)NC(=O)[C@H](CC(=O)O)NC(=O)[C@H](CO)NC(=O)[C@@H](NC(=O)[C@H](Cc1ccccc1)NC(=O)[C@@H](NC(=O)CNC(=O)[C@H](CCC(=O)O)NC(=O)C(C)(C)NC(=O)[C@@H](N)Cc1ccc(O)cc1)[C@@H](C)O)[C@@H](C)O)[C@@H](C)CC)[C@@H](C)CC)C(C)C)C(=O)N[C@@H](C)C(=O)NCC(=O)NCC(=O)N1CCC[C@H]1C(=O)N[C@@H](CO)C(=O)N[C@@H](CO)C(=O)NCC(=O)N[C@@H](C)C(=O)N1CCC[C@H]1C(=O)N1CCC[C@H]1C(=O)N1CCC[C@H]1C(=O)N[C@@H](CO)C(N)=O [Example 3]
Mouse islets
  EC50: 58.9 nM
[1]; Table 8, 10 nmol/kg
  % Change from starting body weight: −13.38 ± 0.88 %
  % Change from starting fat mass: −20.76 ± 2.42 %
[1]; Table 8, 30 nmol/kg
  % Change from starting body weight: −18.13 ± 1.44 %
  % Change from starting fat mass: −30.90 ± 2.06 %
[1]; Table 8, 100 nmol/kg
  % Change from starting body weight: −25.84 ± 1.93 %
  % Change from starting fat mass: −45.92 ± 2.15 %
[1]; Table 11, 10 nmol/kg
  Plasma Cholesterol: 213.2 ± 15.54 mg/dL
  Plasma Triglycerides: 30.38 ± 8.23 mg/dL
  Blood Glucose: 109.5 ± 2.35 mg/dL
[1]; Table 11, 30 nmol/kg
  Plasma Cholesterol: 177.4 ± 16.58 mg/dL
  Plasma Triglycerides: 21.32 ± 2.48 mg/dL
  Blood Glucose: 107.6 ± 1.32 mg/dL
[1]; Table 11, 100 nmol/kg
  Plasma Cholesterol: 194.00 ± 14.40 mg/dL
  Plasma Triglycerides: 20.55 ± 4.60 mg/dL
  Blood Glucose: 102.00 ± 0.50 mg/dL
Rat islets
  EC50: 34.9 nM
Human GLP-1R [2]
  Emax: 96.2 ± 6.2%
[3]
  CL/F: 1.3 mL/h/kg
  Cmax: 3000 ng/mL
[3]; read-out: Mean AUC0-inf
  AUC(0-inf): 153 µg·h/mL
[3]; read-out: Mean T1/2 (converted)
  half-life: 34 h
[3]; read-out: Mean Tmax
  Tmax: 8 h
Human GLP-1R [4]; normalized by factor 4.53 from native GIP and GLP-1 binding
  Molar ratio of hGLP-1R/hGIP-R: 3.53
Human GLP-1R [4]; ratio of Ki values
  Absolute ratio of hGLP-1R/hGIP-R: 16
Human GIP-R
  Emax: 106 ± 3%
Human GCGR
  EC50: > 1000 nM
[5]
  % max increase of insulin AUC: 314 +/− 38% and 219 +/− 19%
  ED50 for insulin, rat IVGTT: 1.00 nmol/kg and 1.42 nmol/kg

## CC[C@H](C)[C@H](NC(=O)[C@H](Cc1ccccc1)NC(=O)[C@H](CCC(=O)O)NC(=O)[C@H](CCCCN)NC(=O)[C@H](C)NC(=O)[C@H](C)NC(=O)[C@H](CCC(N)=O)NC(=O)CNC(=O)[C@H](CCC(=O)O)NC(=O)[C@H](CC(C)C)NC(=O)[C@H](Cc1ccc(O)cc1)NC(=O)[C@H](CO)NC(=O)[C@H](CO)NC(=O)[C@@H](NC(=O)[C@H](CC(=O)O)NC(=O)[C@H](CO)NC(=O)[C@@H](NC(=O)[C@H](Cc1ccccc1)NC(=O)[C@@H](NC(=O)CNC(=O)[C@H](CCC(=O)O)NC(=O)[C@H](C)NC(=O)[C@@H](N)Cc1c[nH]cn1)[C@@H](C)O)[C@@H](C)O)C(C)C)C(=O)N[C@@H](C)C(=O)N[C@@H](Cc1c[nH]c2ccccc12)C(=O)N[C@@H](CC(C)C)C(=O)N[C@H](C(=O)N[C@@H](CCCCN)C(=O)NCC(=O)N[C@@H](CCCNC(=N)N)C(N)=O)C(C)C [GLP-1,7-36-NH2]
GIP receptor
  cAMP accumulation in GLUTag cells: fails to induce any changes in cAMP at all concentrations tested
